Measured values taken from paper PMC6527222 (PLoS ONE, 2019).

Assays:
JB6 P+ cells [1] = experiment: Anchorage-independent growth assay in soft agar (EGF-induced JB6 P+ colony formation); assay type: cell-based, mouse
Method: Ten ng/mL EGF was used to promote the anchorage-independent growth of JB6 cells. […] Plates were incubated at 37°C, 5% CO2 for 14 days. Colonies with greater than ten cells were counted manually under a microscope. […] Normalization allowed for comparison of data over a range of JB6 P+ cell cultures, passages, and experimental time for the shRNA studies, as well as control for variation in the EGF response, and importantly allowed for a direct comparison to all concentration-response experiments including the toxicity assays. […] All group sizes were determined via previous studies to provide statistically meaningful data. In the soft agar assays, key results were repeated with different JB6 P+ cells to confirm the results. Similarly, the shRNA studies were conducted with three independent concentration-response curves with different JB6 P+ cell stocks. […] For two sample comparisons a t-test was utilized, and when comparing multiple samples a One-, Two-, or Three-Factor ANOVA followed by Tukey-Kramer post hoc test was utilized depending on the data. For all tests, statistical difference was donated when p < 0.05. […] The I[…]*PSD is expressed in x-axis units (log [M]) as is an IC50 and it represents the first concentration where it is expected to observe a statistical decrease in the measured signal. […] Using the formula provided by GraphPad Prism or a straight line for the point-to-point graphs, the X-axis value for point Y was determined. The error is ascribed to this measurement via adding and subtracting the pooled standard deviation (PSD) to/from point Y generating point Y ± PSD. The two new points were then transformed to the X-axis units as was done for point Y creating an asymmetric error in sigmoidal plots. When the error was asymmetric, the larger error value was chosen to err on the conservative side. See S1 Fig for a pictoral explination of the method. The data is presented as I[…]*PSD ± error.

JB6 P+ cells [2] = experiment: MTS cell proliferation assay; assay type: cell-based, mouse; conditions: two weeks
Method: Cell viability was determined by the addition of MTS reagent according to the manufacturer’s protocol (Promega, Madison, WI) and absorbance was measured using a Bio-Tek μQuant plate reader with KCJunior software. […] Normalization allowed for comparison of data over a range of JB6 P+ cell cultures, passages, and experimental time for the shRNA studies, as well as control for variation in the EGF response, and importantly allowed for a direct comparison to all concentration-response experiments including the toxicity assays. Data are expressed as mean ± SD and were analyzed using GraphPad Prism version 7.02 (La Jolla, CA). All group sizes were determined via previous studies to provide statistically meaningful data. In the soft agar assays, key results were repeated with different JB6 P+ cells to confirm the results. Similarly, the shRNA studies were conducted with three independent concentration-response curves with different JB6 P+ cell stocks. Statistical analysis of raw data was conducted with NCSS 2007 (Kaysville, UT). For two sample comparisons a t-test was utilized, and when comparing multiple samples a One-, Two-, or Three-Factor ANOVA followed by Tukey-Kramer post hoc test was utilized depending on the data. For all tests, statistical difference was donated when p < 0.05.

JB6 P+ cells [3] = experiment: Soft agar assay with competitive adrenergic receptor antagonists; assay type: cell-based; conditions: Mus musculus, alone
Method: Ten ng/mL EGF was used to promote the anchorage-independent growth of JB6 cells. […] Plates were incubated at 37°C, 5% CO2 for 14 days. Colonies with greater than ten cells were counted manually under a microscope. Antagonists identified in our assays as ineffective at blocking EGF-mediated transformation of JB6 P+ cells yet displaying no or little toxicity were used as competitive antagonists towards carvedilol-mediated prevention of EGF-induced transformation of JB6 P+ cells.

β2-AR = system: β2-AR; parameters: method as in as printed in each cell (43-46, 48-54, 56-58); conditions: as described in the references; ref (43-46, 48-54, 56-58); cited from earlier work
[4] = carvedilol cohort versus non-carvedilol cohort; cited from earlier work

IC50 (JB6 P+ cells [3]; CGP 12177 experiment (Fig 5B)): 331 nM
IC50 (JB6 P+ cells [3]; HEAT HCl experiment (Fig 5C)): 275 nM
IC50 (JB6 P+ cells [3]; nadolol experiment (Fig 5A)): 282 nM
SMILES: COc1ccccc1OCCNCC(O)COc1cccc2[nH]c3ccccc3c12 (stereo not shown) [Carvedilol]
Soft Agar Assay Log IC50 (JB6 P+ cells [1]; 10 ng/mL EGF, 14 days, negative log value): -6.61 ± 0.06 log [M]
IC50 (JB6 P+ cells [1]; Mus musculus, 336 h, 10 ng/mL EGF, 14 days, negative log value, read-out: Soft Agar Assay Log IC50 (converted)): 251 nM
Emax (JB6 P+ cells [1]; Mus musculus, efficacy of inhibition of colony formation, reported if non-toxic): 94.7 ± 4.31%
toxicity (cell viability), words (JB6 P+ cells [2]; 100 μM): maximum toxicity
toxicity (cell viability), words (JB6 P+ cells [2]; concentrations lower than 10 μM): did not affect cell viability
Pharmacological property at β2-AR (β2-AR): Biased agonist/ partial ERK agonist [43, 44]
reduction in the incidence of all types of cancer [4]: 26%
